Experiments:
[1] = Integrity assay under dynamic digestion conditions (LY mass transfer); type: in vitro ADME; settings: LiDo on PVDF; up to two hours
Method: HDM, GIT-0 and LiDo membranes were subjected to in situ lipolysis of the IIIB-MC LBF in a 6-well culture plate format. Transwell inserts (diameter of 24 mm) were used for polycarbonate filters, and inserts were made in-house to hold the PVDF filters (diameter of 25 mm). For these lipolysis experiments, a modified digestion medium with greater buffering capacity was used. The digestion medium contained 200 mM Tris-maleate in these experiments to maintain pH within 0.3 units of the initial value of the lipolysis buffer (pH 6.5) over one hour of digestion (Table S2, Supplementary Material), since no autotitration could be used in the setup. LBF was weighed into a glass tube, and 10 ml of this modified digestion medium spiked with 10.3 μl of LY in DMSO solution (10 mM) was added and vortexed. […]
GIT-0 and LiDo membranes were also evaluated in a large-scale (75 mm diameter) in-house developed lipolysis-permeation device named “ENA” ([19]) in order to explore whether these two lipid mixtures with theoretically similar compositions and production methods also yielded similar results. […]
LY presence was detected using fluorescence (Spark or Safire^2 plate readers, Tecan, Austria) at 428 and 536 nm wavelength for excitation and emission, respectively. […]

[2] = Integrity assay with static digest matrix (LY mass transfer); type: in vitro ADME; settings: GIT-0 membranes
Method: Six samples of 4 ml were taken during dispersion and digestion phases of single-compartment in vitro lipolysis (Fig. 1a) of a formulation over a period of 40 min. The formulation was of type IIIB-MC (medium chain length triglyceride component, 8–10 carbons) according to the Lipid Formulation Classification System (LFCS) ([27]), see Table I for composition. […] To visualize membrane integrity, Lucifer Yellow (LY) in DMSO solution was added to each sample to a final LY concentration of 10 μM and 0.1% DMSO. LY is highly hydrophilic; its permeation through intact lipid membranes should therefore be negligible. The sample tubes were then vortexed, and shaken at 450 rpm at 37°C until further use.
Digestion samples were dispensed (1.2 ml) into the donor compartments of Transwell inserts treated to form artificial membranes. Negative controls comprised only blank digestion medium or lipolysis buffer (both containing LY, 10 μM) in the donor compartment. Positive controls were untreated inserts composed of naked polycarbonate filters, or GIT-0 solution added to pre-wet filters (disrupts membrane formation). The receiver compartments contained 2 ml of either plain phosphate buffer (PB, 10 mM), Acceptor Sink Buffer (20 mM HEPES, 1% w/v SDS), or PB supplemented with 4% w/w bovine serum albumin (BSA). All receiver buffers were adjusted to pH 7.40.
From examination of mass transfer profiles, membrane damage was evaluated by Area Under the Curve (AUC) values of LY mass transfer over time. The criteria were that an LY AUC > 10 nmol min cm^−2 was considered to indicate major membrane disruption, while an LY AUC < 1 nmol min cm^−2 was considered to indicate an intact membrane.
LY presence was detected using fluorescence (Spark or Safire^2 plate readers, Tecan, Austria) at 428 and 536 nm wavelength for excitation and emission, respectively. Samples were diluted 1:2 in ice-cold acetonitrile and centrifuged (4°C, 2465 g for 20 min) to precipitate protein content.

[3] = In vitro lipolysis-permeation assay of fenofibrate-loaded LBFs in the ENA device (porcine pancreatin); type: in vitro ADME
Method: Three formulations representing LFCS types IIIA-MC, IIIA-LC (long chain fatty acid component), and type IV (Table I) were assayed for their performance using artificial membranes in the ENA device. No more than one week before the assay, excipients were heated to 37°C before being weighed into a glass vial. The vial was capped with argon, vortexed, and then shaken overnight (450 rpm, 37°C). The formulations were then loaded with fenofibrate (80 mg/g) in the same manner, and shaken until complete dissolution.
The loaded formulations were weighed separately and then dispensed into ENA donor compartments (Fig. 1b) that had been prefilled with digestion medium spiked with LY to 10 μM (0.1% DMSO). Samples were taken from both compartments during dispersion (0–10 min) and digestion (10–100 min). Samples from the donor compartment were immediately filtered through a hydrophilic nylon syringe filter (Whatman PuraDisc 13, pore size 0.1 μm) to separate precipitates and oil droplets from fenofibrate in free solution and in colloidal aggregates, using the same procedures as those described in Juenemann et al. and Stillhart et al. ([28],[29]). The syringe filters were then flushed through with room temperature acetonitrile to recover precipitated fenofibrate. […] Phases were instead separated through centrifugation (37°C, 21,000 g for 15 min) for these samples. Receiver compartment samples were then quantified using UPLC-MS, and donor samples using HPLC-UV.
Fenofibrate was analyzed using a UV-DAD coupled HPLC (1290 Infinity, Agilent Technologies) with a Zorbax Eclipse XDB-C18 column (4.6 × 100 mm, Agilent Technologies) kept at 40°C (injection volume 20 μl). The mobile phase consisted of sodium acetate buffer (25 mM, pH 5.0) in acetonitrile solution (2:8 v/v) with isocratic flow (1 ml/min). UV absorbance was monitored at a wavelength of 287 nm. The retention time was 3.32 min. Sample preparation consisted of 100x dilution in mobile phase and a centrifugation step (21,000 g, 15 min, 25°C) to purify the matrix. […]

[4] = test system: Caco-2 monolayer; test: Caco-2 based lipolysis-permeation assay in ENA (data re-analyzed from Keemink et al.); settings: average over formulations
[5] = set-up: method as in PMID 23500116, doi:10.1016/j.jddst.2016.06.013, PMID 28826878; settings: cited from earlier work

In the case of Lucifer Yellow CH dilithium salt [LY], the “LY permeation through membrane” value [1] is reported as “did not allow detectable levels”, the “LY mass transfer AUC15-60 min” value ([2]; Fig. 2c, Acceptor Sink Buffer in receiver per legend, 30 min digestion sample) is reported as “< LOQ” and the “LY mass transfer AUC15-60 min” value ([2]; Fig. 2c, Acceptor Sink Buffer in receiver per legend, dispersion sample of IIIB-MC LBF) is reported as “< LOQ”. The “LY mass transfer AUC15-60 min” value ([2]; Fig. 2d, PB with 4% BSA in receiver per legend, 30 min digestion sample) was “< LOQ” and the “LY mass transfer AUC15-60 min” value ([2]; Fig. 2d, PB with 4% BSA in receiver per legend, dispersion sample of IIIB-MC LBF) was “< LOQ”.

In the case of `CC(C)OC(=O)C(C)(C)Oc1ccc(C(=O)c2ccc(Cl)cc2)cc1` [fenofibrate], the “Expected flux in vivo relative to flux over LiDo/Caco-2” value ([3]; based on expected permeability in human small intestine) is reported as 10 fold, the “Flux of fenofibrate over LiDo relative to flux of cinnarizine over Permeapad” value ([3]; under comparable conditions, average, Permeapad data ref 40) is reported as 334 fold and the “Caco-2 permeability relative to LiDo after adjusting for filter porosity (ε)” value [4] is reported as 1.8 fold. The “Ratio between Caco-2 and LiDo permeability” value ([4]; uncorrected Papp) was 0.42 and the “Permeability (in words)” value [5] was “highly permeable”.

In the case of `CC(C)(Oc1ccc(C(=O)c2ccc(Cl)cc2)cc1)C(=O)O` [fenofibric acid], the “Detection of fenofibric acid (control of API degradation during lipolysis and sample storage)” value ([3]; UPLC-MS, all samples) is reported as “no fenofibric acid could be detected”.

From publication PMC7239831, “Suitability of Artificial Membranes in Lipolysis-Permeation Assays of Oral Lipid-Based Formulations” (Pharmaceutical Research, 2020)
